Reference: patent publication US20170001990A1 (Genentech, Inc., priority 2014, published 2017)

Biological target: Human recombinant carboxy-terminal his-tagged LDHA (amino acids 2-332) (Homo sapiens, UniProt P00338)
Test: LDHA enzyme inhibition assay (NADH fluorescence)
Conditions: LDHA IC50 (μM), 1 nM LDHA, NADH and pyruvate, stereochemistry of tested sample given

IC50 [µM] | SMILES
0.022 | CN(c1ccc(F)cc1)c1cccc(C2(c3ccsc3)CC(=O)C(Sc3ccccc3Cl)C(=O)N2)n1 (single isomer, unassigned) [Example 265, 3-((2-chlorophenyl)thio)-6-(6-((4-fluorophenyl) (methyl)amino)pyridin-2-yl)-6-(thiophen-3-yl) piperidine-2,4-dione]
0.036 | CC/C=C/COc1cccc(C2(c3ccsc3)CC(=O)C(Sc3ccccc3Cl)C(=O)N2)n1 (stereo not drawn) [Example 250, 3-(2-chlorophenyl)sulfanyl-6-(6-pent-2-enoxy-2-pyridyl)-6-(3-thienyl) piperidine-2,4-dione]
0.017 | O=C1CC(c2ccsc2)(c2cccc(Nc3cccc(CO)c3)n2)NC(=O)C1Sc1ccccc1Cl (stereo not drawn) [Example 290]
0.119 | CC(Oc1cccc(C2(c3ccsc3)CC(=O)C(Sc3ccccc3Cl)C(=O)N2)n1)c1cccc(F)c1 (stereo not drawn) [Example 312, 3-((2-chlorophenyl)thio)-6-(6-(1-(3-fluorophenyl)ethoxy)pyridin-2-yl)-6-(thiophen-3-yl)piperidine-2,4-dione]
0.021 | COc1ccccc1Oc1cccc(C2(c3ccsc3)CC(=O)C(Sc3ccccc3Cl)C(=O)N2)n1 (single isomer, unassigned) [Example 337, 5-(2-chlorophenyl)sulfanyl-4-hydroxy-2-[6-(2-methoxyphenoxy)-2-pyridyl]-2-(3-thienyl)-1,3-dihydropyridin-6-one]
0.084 | O=C1CC(c2ccsc2)(c2cccc(Oc3ccc(F)nc3Cl)n2)NC(=O)C1Sc1ccccc1Cl (stereo not drawn) [Example 324, 6-[6-[(2-chloro-6-fluoro-3-pyridyl)oxy]-2-pyridyl]-3-(2-chlorophenyl) sulfanyl-6-(3-thienyl) piperidine-2,4-dione]
0.023 | O=C1CC(c2ccsc2)(c2cccc(OCC3CCC(CO)CC3)n2)NC(=O)C1Sc1ccccc1Cl (single isomer, unassigned) [Example 244, 3-(2-chlorophenyl)sulfanyl-6-[6-[[4-(hydroxymethyl)cyclohexyl]methoxy]-2-pyridyl]-6-(3-thienyl) piperidine-2,4-dione]
0.016 | O=C1CC(c2ccsc2)(c2cccc(Cc3ccc(F)cc3)n2)NC(=O)C1Sc1ccccc1Cl (stereo not drawn) [Example 257, 3-((2--chlorophenyl)thio)-6-(6-(4-fluorobenzyl)pyridin-2-yl)-6-(thiophen-3-yl)piperidine-2,4-dione]
0.022 | O=C1CC(c2ccsc2)(c2cccc(OCc3ccc(F)cc3)n2)NC(=O)C1Sc1ccccc1Cl (single isomer, unassigned) [Example 289, 3-((2-chlorophenyl)thio)-6-(6-((4-fluorobenzyl)oxy)pyridin-2-yl)-6-(thiophen-3-yl)piperidine-2,4-dione]
0.058 | O=C1CC(c2ccsc2)(c2cccc(OC3CCCCC3)n2)NC(=O)C1Sc1ccccc1Cl (single isomer, unassigned) [Example 205, 3-(2-chlorophenyl)sulfanyl-6-[6-(cyclohexoxy)-2-pyridyl]-6-(3-thienyl) piperidine-2,4-dione]
0.018 | O=C1CC(c2ccsc2)(c2cccc(Oc3cncc(F)c3)n2)NC(=O)C1Sc1ccccc1Cl (single isomer, unassigned) [Example 202, 3-(2-chlorophenyl)sulfanyl-6-[6-[(5-fluoro-3-pyridyl)oxy]-2-pyridyl]-6-(3-thienyl) piperidine-2,4-dione]
0.007 | O=C1CC(c2ccsc2)(c2cccc(Cc3ccccc3)n2)NC(=O)C1Sc1ccccc1Cl (single isomer, unassigned) [Example 204, 6-(6-benzyl-2-pyridyl)-3-(2-chlorophenyl)sulfanyl-6-(3-thienyl)piperidine-2,4-dione]
0.057 | O=C1CC(c2ccsc2)(c2cccc(NS(=O)(=O)N3CCC3)n2)NC(=O)C1Sc1ccccc1Cl (stereo not drawn) [Example 286, N-(6-(5-((2-chlorophenyl)thio)-4,6-dioxo-2-(thiophen-3-yl)piperidin-2-yl)pyridin-2-yl)azetidine-1-sulfonamide]
0.081 | O=C1CC(c2ccsc2)(c2cccc(Nc3ccc(F)cc3)n2)NC(=O)C1Oc1ccccc1Cl (stereo not drawn) [Example 295, 3-(2-chlorophenoxy)-6-[6-(4-fluoroanilino)-2-pyridyl]-6-(3-thienyl)piperidine-2,4-dione]

The next lines start with the molecule.

SMILES | IC50 [µM]
O=C1CC(c2ccsc2)(c2cccc(OC3CCOC3)n2)NC(=O)C1Sc1ccccc1Cl (stereo not drawn) [Example 49, 3-((2-chlorophenyl)thio)-6-(6-((tetrahydrofuran-3-yl)oxy)pyridin-2-yl)-6-(thiophen-3-yl) piperidine-2,4-dione] | 0.025
O=C1CC(c2ccsc2)(c2cccc(OC3CCCCC3)n2)NC(=O)C1Sc1ccccc1Cl (single isomer, unassigned) [Example 157, 3-(2-chlorophenyl)sulfanyl-6-[6-(cyclohexoxy)-2-pyridyl]-6-(3-thienyl) piperidine-2,4-dione] | 0.03
CC(C)(O)CCOc1cccc(C2(c3ccsc3)CC(=O)C(Sc3ccccc3Cl)C(=O)N2)n1 (single isomer, unassigned) [Example 155, 3-(2-chlorophenyl)sulfanyl-6-[6-(3-hydroxy-3-methyl-butoxy)-2-pyridyl]-6-(3-thienyl)piperidine-2,4-dione] | 0.025
CCOc1cccc(C2(c3ccsc3)CC(=O)C(Sc3ccccc3Cl)C(=O)N2)n1 (stereo not drawn) [Example 74, 3-(2-chlorophenyl)sulfanyl-6-(6-ethoxy-2-pyridyl)-6-(3-thienyl)piperidine-2,4-dione] | 0.014
O=C1CC(c2ccsc2)(c2cccc(OCC(F)(F)F)n2)NC(=O)C1Sc1ccccc1Cl (single isomer, unassigned) [Example 82, 3-(2-chlorophenyl)sulfanyl-6-(3-thienyl)-6-[6-(2,2,2-trifluoroethoxy)-2-pyridyl]piperidine-2,4-dione] | 0.049
O=C1CC(c2ccsc2)(c2cccc(Oc3cccc4ncccc34)n2)NC(=O)C1Sc1ccccc1Cl (single isomer, unassigned) [Example 128, 3-(2-chlorophenyl)sulfanyl-6-[6-(5-quinolyloxy)-2-pyridyl]-6-(3-thienyl) piperidine-2,4-dione] | 0.024
O=C1CC(c2ccsc2)(c2cccc(Oc3cccc4[nH]ncc34)n2)NC(=O)C1Sc1ccccc1Cl (stereo not drawn) [Example 103, 3-(2-chlorophenyl)sulfanyl-6-[6-(1H-indazol-4-yloxy)-2-pyridyl]-6-(3-thienyl) piperidine-2,4-dione] | 0.141
O=C1CC(c2ccsc2)(c2cccc(OCc3ccccc3)n2)NC(=O)C1Sc1ccccc1Cl (stereo not drawn) [Example 68, 6′-(benzyloxy)-5-((2-chlorophenyl)thio)-4-hydroxy-2-(thiophen-3-yl)-2,3-dihydro-[2,2′-bipyridin]-6(1H)-one] | 0.008
CC1(C)OCC(CCOc2cccc(C3(c4ccsc4)CC(=O)C(Sc4ccccc4Cl)C(=O)N3)n2)O1 (stereo not drawn) [Example 191, 3-(2-chlorophenyl)sulfanyl-6-[6-[2-(2,2-dimethyl-1,3-dioxolan-4-yl)ethoxy]-2-pyridyl]-6-(3-thienyl) piperidine-2,4-dione] | 0.158
CC1(C)OCC(CCOc2cccc(C3(c4ccsc4)CC(=O)C(Sc4ccccc4Cl)C(=O)N3)n2)O1 (stereo not drawn) [Example 190, 3-(2-chlorophenyl)sulfanyl-6-[6-[2-(2,2-dimethyl-1,3-dioxolan-4-yl)ethoxy]-2-pyridyl]-6-(3-thienyl) piperidine-2,4-dione] | 0.092
O=C1CC(c2ccsc2)(c2cccc(Oc3ccc(F)c(F)c3)n2)NC(=O)C1Sc1ccccc1Cl (single isomer, unassigned) [Example 77, 3-(2-chlorophenyl)sulfanyl-6-[6-(3,4-difluoro-phenoxy)-2-pyridyl]-6-(3-thienyl)piperidine-2,4-dione] | 0.031
O=C1CC(c2ccsc2)(c2cccc(OCC3CC3)n2)NC(=O)C1Sc1ccccc1Cl (single isomer, unassigned) [Example 97, 3-(2-chlorophenyl)sulfanyl-6-[6-(cyclopropyl-methoxy)-2-pyridyl]-6-(3-thienyl)piperidine-2,4-dione] | 0.03
O=C1CC(c2ccsc2)(c2cccc(Oc3ccc(F)c(C(F)F)c3)n2)NC(=O)C1Sc1ccccc1Cl (stereo not drawn) [Example 139, 3-(2-chlorophenyl)sulfanyl-6-[6-[3-(difluoro-methyl)-4-fluoro-phenoxy]-2-pyridyl]-6-(3-thienyl) piperidine-2,4-dione] | 0.009
O=C1CC(c2ccsc2)(c2cccc(Oc3ccccc3Br)n2)NC(=O)C1Sc1ccccc1Cl (single isomer, unassigned) [Example 116, 6-[6-(2-bromophenoxy)-2-pyridyl]-3-(2-chlorophenyl) sulfanyl-6-(3-thienyl) piperidine-2,4-dione] | 0.376
O=C1CC(c2ccsc2)(c2cccc(Sc3ccc(F)cc3)n2)NC(=O)C1Sc1ccccc1Cl (single isomer, unassigned) [Example 160, 3-(2-chlorophenyl)sulfanyl-6-[6-(4-fluorophenyl)sulfanyl-2-pyridyl]-6-(3-thienyl)piperidine-2,4-dione] | 0.008
O=C1CC(c2ccsc2)(c2cccc(Oc3ccc(F)c(Br)c3)n2)NC(=O)C1Sc1ccccc1Cl (single isomer, unassigned) [Example 122, 6-[6-(3-bromo-4-fluoro-phenoxy)-2-pyridyl]-3-(2-chlorophenyl)sulfanyl-6-(3-thienyl)piperidine-2,4-dione] | 0.022
O=C1CC(c2ccc(N3CCC(F)(F)CC3)cc2)(c2ccsc2)NC(=O)C1Sc1ccccc1Cl (stereo not drawn) [Example 72, 3-(2-chlorophenyl)sulfanyl-6-[4-(4,4-difluoro-1-piperidyl)phenyl]-6-(3-thienyl)piperidine-2,4-dione] | 0.025
O=C1CC(c2ccsc2)(c2cccc(Oc3cccc4c3NCCC4)n2)NC(=O)C1Sc1ccccc1Cl (stereo not drawn) [Example 102, 3-(2-chlorophenyl)sulfanyl-6-[6-(1,2,3,4-tetrahydro-quinolin-8-yloxy)-2-pyridyl]-6-(3-thienyl) piperidine-2,4-dione] | 0.018
CC(C)(O)CCCOc1cccc(C2(c3ccsc3)CC(=O)C(Sc3ccccc3Cl)C(=O)N2)n1 (single isomer, unassigned) [Example 126, 3-(2-chlorophenyl)sulfanyl-6-[6-(4-hydroxy-4-methyl-pentoxy)-2-pyridyl]-6-(3-thienyl) piperidine-2,4-dione] | 0.238
